Test results published in patent JP2019019068A, “アリールアゾール化合物および有害生物防除剤” (Nippon Soda Co Ltd, priority 2017, dated 2019).

How the values were obtained:
[1] = test system: striped flea beetle (キスジノミハムシ) adults; test: Test Example 2: efficacy test against striped flea beetle (キスジノミハムシ), spray on bok choy seedlings; assay type: in vivo; conditions: Phyllotreta striolata, 168 h, sprayed on bok choy seedlings, 25 °C, 65% humidity, 7 days after release, 2 replicates, read-out: insecticidal rate
[2] = test system: diamondback moth (コナガ) 2nd instar larvae; test: Test Example 1: efficacy test against diamondback moth (コナガ), cabbage leaf dip; assay type: in vivo; conditions: Plutella xylostella, foliar, 72 h, cabbage leaf dipped 30 s, 25 °C, 60% humidity, 3 days after release, 2 replicates, read-out: insecticidal rate

How did the mortality at 125 ppm [1] turn out when CCS(=O)(=O)c1cc(/C=N/OCC(F)(F)F)cnc1-c1ncc(C=C(Cl)C(F)(F)F)n1C [化合物番号1, (E)-6-(5-(2-chloro-3,3,3-trifluoroprop-1-en-1-yl)-1-methyl-1H-imidazol-2-yl)-5-(ethylsulfonyl)nicotinaldehyde O-(2,2,2-trifluoroethyl) oxime] was run?
Its mortality at 125 ppm is no less than 80%.

And the mortality at 125 ppm [2]?
Its mortality at 125 ppm is no less than 80%.
